This passage reports IC50 results from patent US20230348421A1, “5-HT2A RECEPTOR INHIBITOR OR INVERSE AGONIST, PREPARATION METHOD THEREFOR, AND APPLICATION THEREOF” (GENEORA PHARMA (SHIJIAZHUANG) CO., LTD., priority 2020, published 2023).

One data set deals with hERG potassium channels (Homo sapiens (Human), UniProt Q12809). As to the kind of experiment: hERG inhibitory activity, whole-cell patch clamp in CHO-hERG cells. In general terms: The hERG channel carries a current that helps repolarise heart muscle cells.
Chain of hERG potassium channels (Q12809 whole entry): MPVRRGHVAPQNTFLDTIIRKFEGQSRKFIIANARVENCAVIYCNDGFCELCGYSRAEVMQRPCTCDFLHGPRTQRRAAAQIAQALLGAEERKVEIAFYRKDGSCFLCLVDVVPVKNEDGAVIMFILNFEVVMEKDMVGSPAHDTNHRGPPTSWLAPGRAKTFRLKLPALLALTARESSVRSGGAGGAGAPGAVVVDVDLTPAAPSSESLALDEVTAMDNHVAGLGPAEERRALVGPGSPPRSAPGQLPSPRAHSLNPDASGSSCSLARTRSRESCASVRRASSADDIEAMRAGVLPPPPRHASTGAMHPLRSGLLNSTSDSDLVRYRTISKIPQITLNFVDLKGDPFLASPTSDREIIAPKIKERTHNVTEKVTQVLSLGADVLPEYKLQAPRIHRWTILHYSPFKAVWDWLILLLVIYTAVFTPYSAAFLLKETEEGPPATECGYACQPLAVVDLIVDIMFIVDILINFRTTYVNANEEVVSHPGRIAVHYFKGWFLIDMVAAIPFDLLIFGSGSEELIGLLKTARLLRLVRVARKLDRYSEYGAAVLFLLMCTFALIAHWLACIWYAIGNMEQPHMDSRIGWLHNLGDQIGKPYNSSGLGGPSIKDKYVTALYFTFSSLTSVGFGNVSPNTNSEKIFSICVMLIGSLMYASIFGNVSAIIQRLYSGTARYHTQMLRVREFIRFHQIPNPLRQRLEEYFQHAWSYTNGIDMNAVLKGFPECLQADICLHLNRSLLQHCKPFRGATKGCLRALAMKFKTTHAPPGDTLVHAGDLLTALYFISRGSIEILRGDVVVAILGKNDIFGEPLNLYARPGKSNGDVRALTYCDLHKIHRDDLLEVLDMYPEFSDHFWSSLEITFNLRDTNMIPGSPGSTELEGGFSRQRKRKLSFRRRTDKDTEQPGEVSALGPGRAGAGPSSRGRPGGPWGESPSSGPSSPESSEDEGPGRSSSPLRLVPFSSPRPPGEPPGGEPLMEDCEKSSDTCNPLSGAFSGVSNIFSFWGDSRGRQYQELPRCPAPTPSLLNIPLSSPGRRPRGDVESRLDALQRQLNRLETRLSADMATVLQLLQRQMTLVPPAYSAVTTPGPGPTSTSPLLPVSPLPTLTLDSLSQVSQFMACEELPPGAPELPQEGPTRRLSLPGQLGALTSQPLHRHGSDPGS
Data set [1] concerns the target T1, 5-HT2A receptor (Homo sapiens (Human), UniProt P28223). As to the kind of experiment: Screening for 5-HT2A inverse agonistic activity (NIH3T3-5-HT2A R cells, Bright-Glo luciferase, 120 h). The settings on record: NIH3T3-5HT2AR cells, cell inhibition rate. It counts as cell-based. The method, then:
• Cell lines: Adherent cells NIH3T3-5-HT2A R • Cell culture medium: DMEM+10% FBS (purchased from GBICO) • Cell culture plate: White-wall clear-bottom 96-well plate (purchased from Perkin Elmer) • Detection kit: Bright-Glo™ Luciferase (purchased from Promega) • Detection instrument: BioTek multifunctional microplate reader
NIH3T3-5HT2AR cells in the logarithmic growth phase were seeded into a white-wall clear-bottom 96-well plate at a density of 1000 cells per well, and cultured overnight in a 37° C., 5% CO2 incubator. […] On the sixth day, a Bright-Glo™ Luciferase reagent with a volume equal to that of cell sap was added to the cells, and the cells were incubated at room temperature in the dark for 20 min. […] The data was processed with GraphPad Prism 7.0 to obtain a cell inhibition rate curve, and the IC50 was calculated.
Cell inhibition rate (%)=[100−(Lum test drug−Lum culture solution)/(Lum cell control−Lum culture solution)×100]%

The target of data set [2] is T1, 5-HT2A receptor. As to the kind of experiment: Test for 5-HT2A antagonistic activity (calcium ion antagonism, FLIPR, CHO-K1/5-HT2A cells). The class given is cell-based. Conditions: 100 nM a-methyl-5-HT, Ca2+ signal. The method, then:
• Cell lines: CHO-K1/5-HT2A (Chempartner) • Cell culture medium: DMEM/F12+10% FBS (purchased from GBICO) • Cell culture plate: 384-well Assay Plate (purchased from Corning) • Detection kit: FLIPR® Calcium 4 Assay Kit (purchased from Molecular Devices)
After that, centrifugation was performed to remove the culture medium in the cell culture plate. Dye was added, and the cells were incubated in a 37° C., 5% CO2 incubator for another 1 h. The cell culture plate was placed on the FLIPR. A compound to be tested was added, and the Ca^2+ signal was detected, wherein the compound to be tested was subjected to 3-fold gradient dilution with PBS to obtain 10 concentrations, with the highest concentration of 10 uM, and double replicate wells were set up. […] In order to determine the test stability, risperidone was used as a positive control. The data were processed with GraphPad Prism 7.0 to obtain a cell inhibition rate curve, and the IC50 was calculated.
Inhibition rate (%)=100%−[(signal value of the compound to be tested−signal value of the test solution)/(the maximum signal value−the signal value of the test solution)]×100%

Where [3] appears, read: read-out: hERG inhibitory activity IC50, CHO-hERG cells, whole-cell patch clamp, tail current at -50 mV.

Molecules are shown by their SMILES. pIC50: −log10 of the molar value. Read-outs that look alike come from different tables or passages of the source.

Usually pIC50 stands for the IC50 on a negative log10 scale, so that one unit is a factor of ten.

T1 sequence (P28223 whole entry): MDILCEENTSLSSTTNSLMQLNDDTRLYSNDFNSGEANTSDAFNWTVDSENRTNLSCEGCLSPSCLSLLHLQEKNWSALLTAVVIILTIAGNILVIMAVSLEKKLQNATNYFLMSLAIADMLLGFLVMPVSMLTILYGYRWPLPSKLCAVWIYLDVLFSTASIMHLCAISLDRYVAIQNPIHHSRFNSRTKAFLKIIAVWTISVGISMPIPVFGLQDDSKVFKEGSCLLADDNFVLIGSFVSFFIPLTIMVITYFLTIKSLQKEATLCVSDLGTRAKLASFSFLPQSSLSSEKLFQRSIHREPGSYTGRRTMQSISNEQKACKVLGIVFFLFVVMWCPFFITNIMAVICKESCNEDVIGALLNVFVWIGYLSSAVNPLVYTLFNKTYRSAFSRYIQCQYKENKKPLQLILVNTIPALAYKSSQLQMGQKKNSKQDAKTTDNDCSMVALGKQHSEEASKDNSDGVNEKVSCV
Procedure for hERG potassium channels: • Name: Dimethyl sulfoxide (DMSO)
• Species & strains: CHO-hERG cell lines (Chinese hamster ovary cells stably expressing hERG channels) • Culture medium: 90% F12, 10% fetal bovine serum, 100 μg/mL G418 and 100 μg/mL hygromycin B • Culture conditions: 5% CO2, 37° C. incubator • Freezing conditions: Liquid nitrogen
Digestion was performed at room temperature for 3-5 min. The digestion solution was pipetted, and the cells were resuspended in extracellular fluid and transferred to an experimental dish for electrophysiological recording for later use.
On the day of the test, the compound was diluted with DMSO to an intermediate concentration. 10 μL of compound with the intermediate concentration was taken, transferred to 4990 μL of extracellular fluid, and subjected to 500-fold dilution to obtain a final concentration to be tested.
CHO (Chinese Hamster Ovary) cells stably expressing hERG potassium channels were taken, and hERG potassium channel currents were recorded at room temperature by means of a whole-cell patch-clamp technique. A glass microelectrode was formed by pulling a glass electrode blank (BF150-86-10, Sutter) with a glass microelectrode puller. The tip resistance was about 2-5 MΩ after perfusion of a pippette solution. The glass microelectrode could be connected to a patch clamp amplifier by inserting the glass microelectrode into an amplifier probe. Clamping voltages and data recording were controlled and recorded by a computer with pClamp 10 software, with a sampling frequency of 10 kHz and a filtering frequency of 2 kHz. After the whole-cell recording was obtained, the cells were clamped at −80 mV, and the step voltage evoking hERG potassium current (I hERG) was changed from −80 mV to +20 mV by giving a 2 s depolarization voltage and then repolarized to −50 mV for 1 s, and returned to −80 mV. Such voltage stimulation was given every 10 s, and the administration process was started after it was determined that the hERG potassium currents were stable (1 min). The compound at each test concentration was given at least 1 min, and at least 2 cells (n≥2) were tested for each concentration.
Data analysis was performed by means of pClamp 10 and GraphPad Prism 5.0 software.
The formula for calculating the degree of inhibition of different compound concentrations on hERG potassium currents (the hERG tail current peak value evoked at −50 mV) was:
Y=Bottom+(Top−Bottom)/(1+10^((LogIC50−X)*HillSlope))
wherein X is a Log value of a test concentration of a test sample, Y is the inhibition percentage at a corresponding concentration, and Bottom and Top are the minimum inhibition percentage and the maximum inhibition percentage, respectively.

For the molecule `CC(C)COc1ccc(CNC(=O)N(Cc2ccc(F)cn2)C2CCN(C)CC2)cc1` [Compound 1], the pIC50 at hERG potassium channels (setting [3]) is 6.39; on 5-HT2A receptor [1], 7.64; at 5-HT2A receptor [2], 8.06.

Consider `CN1CCC(N(Cc2ccc(F)cn2)C(=O)NCc2ccc(O)cc2)CC1` [Compound 3], for which the pIC50 at hERG potassium channels (setting [3]) was < 5.00; at 5-HT2A receptor [2], 7.94.

As to `CC(C)COc1ccc(CNC(=O)N(Cc2ncc(F)cn2)C2CCN(C)CC2)cc1` [Compound 13], the pIC50 on hERG potassium channels (setting [3]) was 5.89; on 5-HT2A receptor [2], 8.72.

On to `CC(C)COc1ccc(CNC(=O)N(CCCN(C)C)Cc2ccc(F)cc2)cc1` [Compound 14], for which the pIC50 at 5-HT2A receptor [2] was 8.66.

With `CN1CCC(N(Cc2ccc(F)cn2)C(=O)NCc2ccc(OCCCF)cc2)CC1` [Compound 17], the pIC50 on hERG potassium channels was 5.81.

As to `CN1CCC(N(Cc2ccc(F)cn2)C(=O)NCc2ccc(OC(C)(C)C)cc2)CC1` [Compound 18], the pIC50 on hERG potassium channels (setting [3]) was 6.07; on 5-HT2A receptor [1] it was 8.95; on 5-HT2A receptor [2] it was 8.24.

`CC(C)COc1ccc(CNC(=O)N(Cc2ccc(F)cc2)C2CCN(C)CC2)nc1` [Compound 19]: the pIC50 was 6.32 at hERG potassium channels (setting [3]), 7.30 on 5-HT2A receptor [1] and 8.16 at 5-HT2A receptor [2].

Turning to `CC(C)COc1ccc(CNC(=O)N(Cc2ccc(F)cc2)C2CCN(C)CC2)cn1` [Compound 20], the negative logarithm of the IC50 (pIC50) is 6.17 on hERG potassium channels (setting [3]) and 8.04 at 5-HT2A receptor [2].

For `CC(C)OCc1ccc(CNC(=O)N(Cc2ccc(F)cc2)C2CCN(C)CC2)cc1` [Compound 21], the pIC50 on hERG potassium channels (setting [3]) is 6.04; at 5-HT2A receptor [1], 7.47; on 5-HT2A receptor [2], 8.68.

On to `CC1(C)Cc2cc(CNC(=O)N(Cc3ccc(F)cn3)C3CCNCC3)ccc2O1` [Compound 23], for which the pIC50 on hERG potassium channels (setting [3]) was < 5.00; on 5-HT2A receptor [1], 8.25; on 5-HT2A receptor [2], 8.22.

For `CN1CCC(N(Cc2ccc(F)cn2)C(=O)NCc2ccc3c(c2)CC(C)(C)O3)CC1` [Compound 24], the negative-log IC50 (pIC50) is 5.44 on hERG potassium channels (setting [3]), 8.60 on 5-HT2A receptor [1] and 8.46 at 5-HT2A receptor [2].

On to `CC(C)C(O)Cc1ccc(CNC(=O)N(Cc2ccc(F)cc2)C2CCN(C)CC2)cc1` (stereo not drawn) [Compound 25], for which the pIC50 was 5.99 at hERG potassium channels (setting [3]), 7.77 on 5-HT2A receptor [1] and 8.17 on 5-HT2A receptor [2].

For the molecule `CN1CCC(N(Cc2ccc(F)cn2)C(=O)NCc2ccc(OCC(F)(F)F)c(F)c2)CC1` [Compound 26], the pIC50 was 6.28 at hERG potassium channels (setting [3]), 8.01 at 5-HT2A receptor [1] and 8.16 on 5-HT2A receptor [2].

Take `CN1CCC(N(Cc2ccc(F)cc2)C(=O)NCc2ccc3c(c2)CC(C)(C)O3)CC1` [Compound 31]: the pIC50 was 5.73 at hERG potassium channels (setting [3]), 7.52 at 5-HT2A receptor [1] and 7.76 at 5-HT2A receptor [2].

Consider `CC(C)OCc1ccc(CNC(=O)N(Cc2ccc(F)cn2)C2CCN(C)CC2)cc1` [Compound 37], for which the pIC50 was 5.40 on hERG potassium channels (setting [3]), 7.37 on 5-HT2A receptor [1] and 8.69 at 5-HT2A receptor [2].

In the case of `CN1CCC(N(Cc2ccc(F)cn2)C(=O)NCc2ccc(OC(F)(F)C(F)(F)F)cc2)CC1` [Compound 38], the pIC50 at 5-HT2A receptor [1] was 8.00.

Regarding `CC(C)C1Cc2cc(CNC(=O)N(Cc3ccc(F)cn3)C3CCN(C)CC3)ccc2O1` (stereo not drawn) [Compound 41], the figures for the pIC50 on hERG potassium channels (setting [3]), at 5-HT2A receptor [1] and on 5-HT2A receptor [2] were 6.10, 8.37 and 8.00, respectively.

For the molecule `CN1CCC(N(Cc2ccc(F)cn2)C(=O)NCc2ccc(OC(CF)CF)cc2)CC1` [Compound 45], the negative logarithm of the IC50 (pIC50) is 5.26 on hERG potassium channels (setting [3]), 8.15 on 5-HT2A receptor [1] and 8.62 at 5-HT2A receptor [2].

Consider `CN1CCC(N(Cc2ccc(F)cn2)C(=O)NCc2ccc3c(c2)CCO3)CC1` [Compound 46], for which the pIC50 is 4.98 at hERG potassium channels (setting [3]), 7.96 at 5-HT2A receptor [1] and 8.38 at 5-HT2A receptor [2].

`CN1CCC(N(Cc2ccc(F)cn2)C(=O)NCc2ccc(OCC(C)(C)F)cc2)CC1` [Compound 47]: the pIC50 at hERG potassium channels (setting [3]) is 5.86; at 5-HT2A receptor [1], 8.04; at 5-HT2A receptor [2], 8.50.

In the case of `CCN1CCC(N(Cc2ccc(F)cn2)C(=O)NCc2ccc3c(c2)CC(C)(C)O3)CC1` [Compound 48], the pIC50 was 5.62 on hERG potassium channels (setting [3]), 7.65 at 5-HT2A receptor [1] and 8.50 on 5-HT2A receptor [2].

Regarding `CCOc1ccc(CNC(=O)N(Cc2ccc(F)cn2)C2CCN(C)CC2)cc1` [Compound 49], the pIC50 on hERG potassium channels (setting [3]) is 5.61; on 5-HT2A receptor [1] it was 8.14; on 5-HT2A receptor [2] it was 8.39.
